Data: patent US11779628B2, “Use of cell-permeable peptide inhibitors of the JNK signal transduction pathway for the treatment of various diseases” (Xigen Inflammation Ltd., priority 2014, dated 2023)

How the values were obtained:
[1] = system: patients after ocular surgery; experiment: Clinical Phase II, post-surgery intraocular inflammation: safety; details: for AEs considered by the Investigator to be related to Dexamethasone / AEs considered by the Investigator to be related to XG-102: blinded assessment
Experimental: The criteria for evaluation of safety were: • a. Visual acuity by ETDRS method • b. Slit Lamp examination findings • c. The results of the ophthalmic fundus examination • d. Intra Ocular Pressure (IOP) measurements • e. Vital signs (blood pressure (BP), pulse rate (PR) and rhythm) • f. The results of the hematology and chemistry laboratory tests • g. The occurrence of Adverse Events • h. Presence (or not) of XG-102 in plasma 1 hour after the administration of study treatment in a subset of patients (approximately 30).
An AE is therefore any unfavorable and unintended sign, symptom or disease temporally associated with the use of a medicinal product, whether or not considered related to the medicinal product.
A Suspected Unexpected Serious Adverse Reaction (SUSAR) was defined as a suspected adverse reaction related to the treatment that is both unexpected (i.e. not consistent with the expected outcomes of the study treatment being administered) and serious.
Patients were analyzed as treated, i.e. according to the treatment which they received. The safety set was the primary analysis set for the safety analysis.
The present study was a double-blind study. All patients who were randomized and for whom the sub-conjunctival injection was started are included in the safety analysis by dose group. […] If the study treatment eye drops were stopped prematurely (i.e. before day 21), the patients concerned continued follow-up until day 28, in accordance with the study protocol.
Investigators assessed (in a blinded manner) the relationship of each reported AE to any of the study treatments. An event was considered to be related to study treatment if the Investigator ticked either ‘possible’ or ‘probable’ as the reply to this question.

[2] = system: Hep G2 human hepatocarcinoma tumor; experiment: Orthotopic HEP G2 human liver carcinoma, dose/response; assay type: in vivo, mice; details: 0.1, 1, 5 mg/kg/inj IV, Q4Dx4
Experimental: The objective of this study was to determine the antitumor activity of XG-102 (dose/response) in the model of SWISS Nude mice bearing the orthotopic Hep G2 human hepatocarcinoma tumor.
For XG-102 administration XG-102 was prepared at the concentration of 1 mg/ml with sterile water (WFI, Aguettant, France). Lt was then cliluted at the concentrations of 0.2 and 0.02 mg/ml with sterile water. All these steps were performed within one hour prior to injection to mice. XG-102 was injected at 0.1, 1 and 5 mg/kg/inj. Four injections were performed, each separated by four days (Q4Dx4).
Twenty four hours before tumor induction, 32 female SWISS Nude mice were irradiated with a γ-source (2.5 Gy, Co^60, INRA, Dijon, France). […]
Mice were monitored every day throughout the study for behaviour and survival. The body weight was monitored twice a week for all mice throughout the study. […]
At D67, 3 mice randomly selected per group during randomization were sacrificed for observation of macroscopic development. […] Histological sections were analyzed by a pathologist expert to determine the metastatic invasion in liver.
For the body weight analysis body weight curves of mice were drawn. Mean body weight change (MBWC): Average weight change of treated animals in grams (weight at day X minus weight at D10) was calculated.
Efficacy parameters were expressed as a percent (T/C %). […]

`CC(C)C[C@@H](NC(=O)[C@@H](Cc1ccccc1)NC(=O)[C@H]1CCCN1C(=O)[C@@H](CCC(N)=O)NC(=O)[C@H](NC(=O)[C@H]1CCCN1C(=O)[C@@H](CCCNC(=N)N)NC(=O)[C@@H](CO)NC(=O)[C@@H](CCC(N)=O)NC(=O)[C@H](N)CC(=O)O)C(C)C)C(=O)N[C@H](CC(N)=O)C(=O)N[C@H](CC(C)C)C(=O)N[C@@H](C(=O)N[C@@H](C(=O)N1CCC[C@@H]1C(=O)N[C@H](CCCNC(=N)N)C(=O)N[C@H](CCCCN)C(=O)N1CCC[C@@H]1C(=O)N[C@H](CCCNC(=N)N)C(=O)N1CCC[C@@H]1C(=O)N1CCC[C@@H]1C(=O)N[C@H](CCCNC(=N)N)C(=O)N[C@H](CCCNC(=N)N)C(=O)N[C@H](CCCNC(=N)N)C(=O)N[C@H](CCC(N)=O)C(=O)N[C@H](CCCNC(=N)N)C(=O)N[C@H](CCCNC(=N)N)C(=O)N[C@H](CCCCN)C(=O)N[C@H](CCCCN)C(=O)N[C@H](CCCNC(=N)N)C(=O)NCC(=O)O)[C@H](C)O)[C@H](C)O` [XG-102] was tested, and the “AEs possibly or probably related to study treatment as assessed by the Investigator” value ([1]; 90 μg XG-102 (N = 47)) was 18 Total # events, the “AEs considered by the Investigator to be related to Dexamethasone” value ([1]; 90 μg XG-102 group) was 2 (2.6%) Total # events (%) and the “AEs considered by the Investigator to be related to XG-102” value ([1]; 90 μg XG-102 group) was 16 (20.5%) Total # events (%). The “AEs possibly or probably related to study treatment as assessed by the Investigator” value ([1]; 900 μg XG-102 (N = 48)) was 13 Total # events, the “AEs considered by the Investigator to be related to Dexamethasone” value ([1]; 900 μg XG-102 group) was 1 (1.5%) Total # events (%) and the “AEs considered by the Investigator to be related to XG-102” value ([1]; 900 μg XG-102 group) was 12 (17.4%) Total # events (%). The “AEs possibly or probably related to study medication” value ([1]; XG-102 90 μg) was 18 events, the “Intraocular pressure increased, patients” value ([1]; XG-102 90 μg) was 23% and the “events in SOC EYE DISORDERS” value ([1]; XG-102 90 μg) was 49 events. The “events resulting in premature withdrawal of study treatment eye drops” value ([1]; XG-102 90 μg) was 11 events, the “patients with SAEs” value ([1]; XG-102 90 μg) was 4 patients and the “patients with events in SOC EYE DISORDERS” value ([1]; XG-102 90 μg) was 26 (55%). For the same compound, the “percentage of patients with an AE within 24 hours after administration” value ([1]; XG-102 90 μg) was 34%, the “total number of AEs reported” value ([1]; XG-102 90 μg) was 78 and the “Reported AEs by severity: Mild” value ([1]; XG-102 90 μg dose group) was 55 (70.5%) number of events (% of reported events). For the same compound, the “Reported AEs by severity: Moderate” value ([1]; XG-102 90 μg dose group) was 6 (7.7%) number of events (% of reported events), the “Reported AEs by severity: Severe” value ([1]; XG-102 90 μg dose group) was 17 (21.7%) number of events (% of reported events) and the “AEs possibly or probably related to study medication” value ([1]; XG-102 900 μg) was 13 events. For the same compound, the “Intraocular pressure increased, patients” value ([1]; XG-102 900 μg) was 10%, the “events in SOC EYE DISORDERS” value ([1]; XG-102 900 μg) was 43 events and the “events resulting in premature withdrawal of study treatment eye drops” value ([1]; XG-102 900 μg) was 8 events. The “patients with SAEs” value ([1]; XG-102 900 μg) was 3 patients, the “patients with events in SOC EYE DISORDERS” value ([1]; XG-102 900 μg) was 24 (50%) and the “percentage of patients with an AE within 24 hours after administration” value ([1]; XG-102 900 μg) was 27%. The “total number of AEs reported” value ([1]; XG-102 900 μg) was 69, the “Reported AEs by severity: Mild” value ([1]; XG-102 900 μg dose group) was 49 (71.0%) number of events (% of reported events) and the “Reported AEs by severity: Moderate” value ([1]; XG-102 900 μg dose group) was 12 (17.4%) number of events (% of reported events). The “Reported AEs by severity: Severe” value ([1]; XG-102 900 μg dose group) was 8 (11.6%) number of events (% of reported events), the Eye pain ([1]; XG-102 900 μg vs dexamethasone (p=0.029)) was “Eye pain was more frequently reported for patients allocated to the XG-102 900 μg group” and the body weight [2] was “no apparent differences occurred for the body weight”.
